Laboratory results: patent publication US20250270173A1, “PYRIDINE DERIVATIVES FOR TREATING PSYCHIATRIC DISORDERS” (GILGAMESH PHARMACEUTICALS, INC., priority 2022, published 2025)
“And” between values parts separate entries of the source, which are not always exact repeats. Equal entries are not always repeated.

How the values were obtained:
5-HT2A receptor = 5-HT2A receptor (Homo sapiens (Human), UniProt P28223); assay: FLIPR Ca2+ flux functional assay at 5-HT2A (HEK293); conditions: for 5-HT2A % Act @ Max Conc.: Ca2+ flux, HEK293, at max concentration
5-HT1A receptor = 5-HT1A receptor (Homo sapiens (Human), UniProt P08908); assay: FLIPR Ca2+ flux functional assay at 5-HT1A (CHO cells); conditions: for 5-HT1A % Act @ Max Conc.: Ca2+ flux, CHO cells, at max concentration
5-HT2B receptor = 5-HT2B receptor (Homo sapiens (Human), UniProt P41595); assay: FLIPR Ca2+ flux functional assay at 5-HT2B (HEK293); conditions: for 5-HT2B % Act @ Max Conc.: Ca2+ flux, HEK293, at max concentration
Chain of 5-HT2B receptor (P41595 whole entry, looked up): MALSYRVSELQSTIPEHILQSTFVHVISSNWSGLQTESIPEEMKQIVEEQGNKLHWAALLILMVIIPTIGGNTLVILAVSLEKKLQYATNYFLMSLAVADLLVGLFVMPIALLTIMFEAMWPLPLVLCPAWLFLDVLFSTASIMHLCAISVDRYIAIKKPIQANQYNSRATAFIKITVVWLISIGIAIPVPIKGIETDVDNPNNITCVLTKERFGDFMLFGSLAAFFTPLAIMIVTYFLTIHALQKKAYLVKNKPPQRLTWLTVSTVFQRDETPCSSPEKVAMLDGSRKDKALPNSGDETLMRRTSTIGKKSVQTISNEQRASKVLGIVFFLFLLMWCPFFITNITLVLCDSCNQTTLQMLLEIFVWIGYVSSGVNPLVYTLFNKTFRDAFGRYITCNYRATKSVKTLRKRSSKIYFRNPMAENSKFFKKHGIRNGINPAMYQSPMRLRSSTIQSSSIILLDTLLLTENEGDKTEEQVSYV

human 5-HT2C receptor = human 5-HT2C receptor (Homo sapiens (Human), UniProt P28335); assay: FLIPR Ca2+ flux functional assay at 5-HT2C (Eurofins DiscoverX); format: cell-based; conditions: for 5-HT2C % Act @ Max Conc.: Ca2+ flux, human 5-HT2C, at max concentration
Chain of human 5-HT2C receptor (P28335 whole entry, looked up): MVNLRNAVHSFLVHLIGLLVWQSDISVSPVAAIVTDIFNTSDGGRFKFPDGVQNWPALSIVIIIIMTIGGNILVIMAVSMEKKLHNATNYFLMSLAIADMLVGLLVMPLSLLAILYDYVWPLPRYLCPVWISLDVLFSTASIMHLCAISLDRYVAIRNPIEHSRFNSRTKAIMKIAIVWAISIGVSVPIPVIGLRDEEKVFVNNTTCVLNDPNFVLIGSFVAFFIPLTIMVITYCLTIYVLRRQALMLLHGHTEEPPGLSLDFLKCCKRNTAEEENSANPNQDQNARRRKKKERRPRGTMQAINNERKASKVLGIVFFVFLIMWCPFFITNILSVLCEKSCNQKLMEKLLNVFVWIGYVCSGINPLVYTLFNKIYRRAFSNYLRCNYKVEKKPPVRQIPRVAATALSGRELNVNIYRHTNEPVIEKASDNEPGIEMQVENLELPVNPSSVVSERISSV
Protocol: Functional Assays at 5-HT2C Receptors. […] Probenecid was prepared fresh. Cells were loaded with dye prior to testing and incubated at 37° C. for 30-60 minutes. After dye loading, cells were removed from the incubator and 10 μL HBSS/20 mM Hepes was added. 3× vehicle was included in the assay buffer. Cells were incubated for 30 mins at room temperature in the dark to equilibrate plate temperature. Intermediate dilution of sample stocks was performed to generate 4× sample in assay buffer. Compound agonist activity was measured on a FLIPR Tetra (MDS). Calcium mobilization was monitored for 2 minutes and 10 μL 4× sample in HBSS/20 mM Hepes was added to the cells 5 seconds into the assay.

C57BL/6 mice = assay: Automated (video tracking) head twitch response (HTR) assay in mice; format: in vivo; conditions: SC; for ED50: Mus musculus, 20 min, 20 min recording, read-out: ED50; for Most Efficacious Dose; mg/kg: dose giving the most HTR
Protocol: Disclosed compounds were tested for their ability to induce a head twitch response (HTR) in mice using an automated video tracking procedure, with the results summarized in Table 5. […] The phenyl Compound 44 was substantially more efficacious at inducing HTR than its pyridine counterpart Compound 29, in agreement with the generally lower maximal efficacy of the disclosed pyridine compounds for signaling through 5-HT2A receptors.
Animals. Adult male C57BL/6 mice aged 8-10 weeks (body weight 20-25 g) were used in these experiments. Animals were housed under controlled temperatures and 12-hour light/dark cycles (lights on between 07:00-19:00 h), with ad libitum food and water. The protocol was approved by the Institutional Animal Care and Use Committee at the study site. This study was carried out in strict accordance with the recommendations in the Guide for the Care and Use of Laboratory Animals of the National Institutes of Health. All efforts were made to minimize suffering.
Drugs and Drug Administration. […] was commercially obtained. Disclosed compounds were synthesized as described above. They were administered subcutaneously (SC) dissolved in saline (or saline acidified with 1-2 molar equivalents HCl to form the salt in situ for freebase compounds) at a volume of 10 mL/kg. Five doses were tested, with N=5-8 animals/group. Doses were calculated on the basis of the freebase, except for DOI, which was calculated based on the HCl salt.
Procedure. Mice were administered one dose of the drug and immediately placed into a small open field for behavioral observation. High-speed video of animals' behavior was captured continuously for 20 min. Video recordings were imported into an image processing software, which detects multiple points of interest on each animal's body, including the left and right ear. HTR events were defined as periodic deviations of ear locations from temporally averaged ear locations. Predefined thresholds for magnitude and frequency of location deviations were used to filter […] events from random head movements. The method was validated by comparing detected events with manual (human) observations and found to have an accuracy >95%. The total number of HTR events counted during the 20-min recording were determined for each animal at each dose.
Statistical Analysis. Analysis was performed using GraphPad Prism 9. Dose-response curves were fit via non-linear regression using the Gaussian 2020 function in Prism in order to determine the ED50 and Emax for each compound.

SMILES	EC50 (5-HT2A receptor) [nM]	5-HT2A % Act @ Max Conc. (5-HT2A receptor)	EC50 (5-HT1A receptor) [nM]	5-HT1A % Act @ Max Conc. (5-HT1A receptor) [%]	EC50 (5-HT2B receptor) [nM]	5-HT2B % Act @ Max Conc. (5-HT2B receptor) [%]	5-HT2C % Act @ Max Conc. (human 5-HT2C receptor) [%]	EC50 (human 5-HT2C receptor) [nM]	ED50 (C57BL/6 mice) [mg/kg]	Emax (HTR counts/20 min) (C57BL/6 mice)	# HTR/20 min at Most Efficacious Dose (C57BL/6 mice) [HTR/20 min]	Most Efficacious Dose; mg/kg (C57BL/6 mice)
CCc1cc(OC)c(CC(N)CC)nc1OC (stereo not shown) [Compound 21, 1-(5-ethyl-3,6-dimethoxypyridin-2-yl)butan-2-amine]	170	73.61%	–	–	–	–	–	–	–	–	–	–
CCCc1cc(OC)c(CC(N)CC)nc1OC (stereo not shown) [Compound 37, 1-(3,6-dimethoxy-5-propylpyridin-2-yl)butan-2-amine]	128	49.58%	> 100000	42.24	> 10000	12.18	–	–	–	–	–	–
COc1cc(CCN)cc(OC)c1OC [Mescaline, reference compound]	–	102%	–	−5.03	–	45.4	91.1	–	–	–	–	–
CCC(N)Cc1cc(OC)c(C)cc1OC (stereo not shown) [Compound 39, reference compound]	–	112.8%	–	8.7	–	39.2	99.3	–	–	–	–	–
COc1cc(Br)c(OC)nc1CCN [Compound 9, 2-(5-bromo-3,6-dimethoxypyridin-2-yl)ethan-1-amine]	9.81	96.84%	> 100000	2.11	764	38.01	95.94	30.7	1.38	49.65	45.75	(3.2) mg/kg
CCCCCCc1cc(OC)c(CCN)nc1OC [Compound 29, 2-(5-hexyl-3,6-dimethoxypyridin-2-yl)ethan-1-amine]	34.6	69.91%	> 100000	–	> 10000	7.78	–	–	7.46	22.11	23	(3.2) mg/kg
CCCc1cc(OC)c(CC(N)CC)cc1OC (stereo not shown) [Compound 40, reference compound]	–	84.23%	–	96.43	–	−0.18	93.58	–	–	–	–	–
CCCCCc1nc(OC)c(CC(N)CC)nc1OC (stereo not shown) [Compound 12, 1-(3,6-dimethoxy-5-pentylpyrazin-2-yl)butan-2-amine]	> 3160	37.1%	33300	170	–	7.05	–	–	–	–	–	–
CCCCCc1cc(OC)c(CC(C)N)cc1OC (stereo not shown) [Compound 41, reference compound]	–	100.2%	–	15.0	–	20.0	90.1	–	–	–	–	–
CCCCCCc1cc(OC)c(CC(C)N)cc1OC (stereo not shown) [Compound 42, reference compound]	–	119.7%	–	30.4	–	39.8	99.8	–	–	–	–	–
CCCCCc1cc(OC)c(CC(N)CC)cc1OC (stereo not shown) [Compound 10, 1-(2,5-dimethoxy-4-pentylphenyl)butan-2-amine]	–	72% and 71.5%	–	33.1	–	0.211	115	–	–	–	–	–
CCCCCc1cc(OC)c(CCN)cc1OC [Compound 43, reference compound]	–	105.2%	–	18.9	–	62.2	85.6	–	–	–	–	–
CCC(N)Cc1nc(OC)c(C2CC2)cc1OC (stereo not shown) [Compound 28, 1-(5-cyclopropyl-3,6-dimethoxypyridin-2-yl)butan-2-amine]	161	71.49%	–	–	–	–	–	–	–	–	–	–
